According to patent publication US9586985B2, “Organic compounds as proantigens for natural killer T cells” (Callaghan Innovation Research Limited, priority 2012, dated 2017):

Experiments:
[1] = test system: cytokines IL-12p70, IL-4 and IFN-g; experiment: Cytokine release into serum after injection (cytokine bead array); assay type: in vivo, C57BL/6 mice
Method: (§1) Groups of C57BL/6 mice (n=3 per group) are injected intravenously with 200 ng of the indicated compounds, and then the serum is collected at the indicated times for analysis of cytokine levels by cytokine bead array technology.
as §1, with “ng of α-GalCer or an equivalent molar amount” for “ng”, “technology. (Compound CN158A1b=CN158 formulated in accordance with Example 15; Compound CN158A=CN158 in water.)” for “technology.”
Blood is collected from the lateral tail vein at different time intervals after glycolipid administration. Serum is collected after blood has clotted, and levels of cytokines IL-12p70, IL-4 and IFN-g are assessed by cytokine bead array technology (Bioplex, Biorad), according to the manufacturer's instructions.

[2] = HPLC-ESI-MSMS quantification of α-GalCer in test samples; assay type: physicochemical; conditions: freshly reconstituted formulated sample; estimated maximum level
Method: Quantification of the amount of α-GalCer in various test samples of compounds of the invention is made by HPLC-ESI-MSMS analysis using a Waters 2795 HPLC and a Waters Q-TOF Premier™ Tandem Mass Spectrometer. The chromatography used a Phenomenex Kinetex C18 […] 3.0×50 mm column eluting with isocratic methanol containing 10 mM ammonium formate+0.5% formic acid at a flow rate of 0.2 mL/min. α-GalCer is monitored by selective reactant monitoring of 858.7 to 696.7 Da. The estimate of amount of α-GalCer is made by comparison of ion count integrals to a standard curve run on the same day or by comparison to test samples spiked with a known amount of α-GalCer.
The level of α-GalCer is determined on freshly reconstituted formulated samples unless otherwise stated. The estimated maximum level of α-GalCer for key compounds is given below.

human NKT cells = experiment: Proliferation of human NKT cells in PBMC culture; assay type: cell-based; conditions: 7 days culture with IL-2, one donor, FIG. 6
Method: PBMC from one donor are cultured for 7 days with different doses of the indicated compounds in the presence of IL-2, and then the percentages of NKT cells in the final cultures determined by flow cytometry with fluorescent α-GalCer-loaded CD1d tetramers and anti-CD3. Data are expressed as percentage of NKT cells (α-GalCer/CD1d tetramer and anti-CD3-binding cells) of total T cells (all anti-CD3-binding cells).
Peripheral blood is drawn into heparinized tubes, diluted 1:1 in PBS, and layered over a sodium diatrizoate and polysaccharide solution (Lymphoprep; Axis-Shield, Oslo, Norway) before centrifugation at 800×g for 25 minutes at room temperature to collect the peripheral blood mononuclear cell (PBMC) fraction, which contains NKT cells. To assess proliferation of NKT cells, PBMC (2×10^5 per well) are cultured at 37° C. in Iscove's Modified Dulbecco's Medium with 5% human AB serum and the indicated concentrations of α-GalCer, or the compounds of the invention, with recombinant human IL-2 50 U/mL (Chiron Corporation, Emeryville, Calif.) added after 24 hours. After 7 days of culture, the cells are analysed by flow cytometry, using fluorescent soluble CD1d tetramers that have been loaded with α-GalCer to identify the NKT cells. […]

B16.OVA melanoma cells = experiment: Anti-tumour activity against subcutaneous B16.OVA tumours, given with OVA protein; assay type: in vivo, C57BL/6 mice; conditions: i.v. with 200 μg OVA protein seven days after tumour challenge
Method: Progression of subcutaneous B16.OVA tumours is monitored in animals that are treated seven days after tumour challenge with intravenous OVA protein together with the indicated compounds, or treated with PBS. The mean tumour sizes per group (n=5)±SEM are shown.
Progression of subcutaneous B16.OVA tumours is monitored in animals that are treated seven days after tumour challenge with intravenous OVA protein together with the indicated compounds, or treated with PBS. The mean tumour sizes per group (n=5)±SEM are shown. […] (Compound CN158A=CN158 in water.)
Groups of C57BL/6 mice (n=5) receive a subcutaneous injection into the flank of 1×10^5 B16.OVA melanoma cells, which express a cDNA encoding the chicken ovalbumin (OVA) sequence. The different groups are treated 7 days later, when tumours are fully engrafted, by intravenous injection of one of the following; 200 μg OVA protein together with 200 ng α-GalCer, 200 μg OVA protein together with 200 ng of a compound of the invention, or PBS. Mice are monitored for tumour growth every 3-4 days, and tumour size for each group is calculated as the mean of the products of bisecting diameters (±SEM). Measurements are terminated for each group when the first animal develops a tumour exceeding 200 mm^2.

- Max α-GalCer (ppm) [2]: 40 ppm
- Max α-GalCer/injection [2]: 0.008 ng
Structure (SMILES): CCCCCCCCCCCCCCCCCCCCCCCCCC(=O)O[C@H](CCCCCCCCCCCCCC)[C@@H](O)[C@H](CO[C@H]1O[C@H](CO)[C@H](O)[C@H](O)[C@H]1O)NC(=O)OCOC(=O)C(C)(C)C [CN145, (2S,3S,4R)-1-O-α-D-Galactopyranosyl-4-O-hexacosanoyl-2-(pivaloyloxymethoxycarbonylamino) octadecane-1,3,4-triol]
- cytokine profile in vivo compared to α-GalCer ([1]; 200 ng i.v. or molar equivalent, FIGS. 3 and 8): different cytokine profiles
- course of IL-12p70 level in serum ([1]; 200 ng i.v., FIG. 3): still increasing through 6 to 12 h
- ratio of IFN-γ to IL-4 in serum compared to α-GalCer ([1]; 200 ng i.v., FIG. 3): higher ratio of IFN-γ to IL-4 than that of α-GalCer
- overall levels of systemic cytokine production ([1]; 200 ng α-GalCer or equivalent i.v., FIGS. 3 and 8): not as potent as α-GalCer in terms of overall levels of cytokine production
- expansion of human NKT cells from PBMC (human NKT cells): able to induce the expansion of human NKT cells
- anti-tumour activity: growth of established B16.OVA tumours (B16.OVA melanoma cells): equally beneficial in promoting immune responses that suppress growth of established tumours
